Source: paper PMC2120756 (The Journal of Cell Biology, 1996)
pIC50: −log10 of the molar value.

Molecular target: NHE-1 (Na+/H+ exchanger isoform 1) (Homo sapiens, UniProt P19634)
Assay: BCECF pHi recovery from NH4Cl acid load
Assay type: cell-based

Chain of NHE-1 (Na+/H+ exchanger isoform 1) (P19634 whole entry, canonical isoform): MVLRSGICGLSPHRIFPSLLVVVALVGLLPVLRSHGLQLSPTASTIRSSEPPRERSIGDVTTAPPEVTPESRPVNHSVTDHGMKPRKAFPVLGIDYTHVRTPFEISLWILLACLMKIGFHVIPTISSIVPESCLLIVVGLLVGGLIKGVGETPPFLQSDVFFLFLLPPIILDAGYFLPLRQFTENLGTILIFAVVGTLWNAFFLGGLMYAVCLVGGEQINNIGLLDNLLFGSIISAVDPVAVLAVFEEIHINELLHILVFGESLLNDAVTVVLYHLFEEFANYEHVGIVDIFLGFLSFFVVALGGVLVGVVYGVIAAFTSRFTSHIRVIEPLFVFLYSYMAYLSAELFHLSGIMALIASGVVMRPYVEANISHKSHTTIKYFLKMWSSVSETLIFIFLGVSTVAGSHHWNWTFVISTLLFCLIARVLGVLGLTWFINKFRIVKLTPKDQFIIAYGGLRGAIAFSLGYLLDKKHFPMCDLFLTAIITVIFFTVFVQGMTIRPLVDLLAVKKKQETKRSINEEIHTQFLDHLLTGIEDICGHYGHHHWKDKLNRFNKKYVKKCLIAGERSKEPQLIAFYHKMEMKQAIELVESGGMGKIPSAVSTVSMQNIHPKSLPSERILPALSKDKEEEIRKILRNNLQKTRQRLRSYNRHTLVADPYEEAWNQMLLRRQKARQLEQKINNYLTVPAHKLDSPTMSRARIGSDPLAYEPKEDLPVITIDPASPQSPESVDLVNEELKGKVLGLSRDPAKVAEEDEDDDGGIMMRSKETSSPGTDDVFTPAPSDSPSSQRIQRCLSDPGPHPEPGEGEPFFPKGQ

Molecule `CS(=O)(=O)c1cc(C(=O)N=C(N)N)ccc1N1CCCCC1` [HOE694] has a pIC50 of roughly 8.00.
